Test results published in patent US8889705B2, “Noscapine analogs and their use in treating cancers” (Emory University, priority 2007, dated 2014).

Columns and labels:
tubulin = target: T1, tubulin; experiment: Tubulin binding assay (fluorescence titration, quenching of intrinsic tubulin fluorescence); parameters: species or system mammalian; settings: 2 μM tubulin, 45 min at 37° C., double reciprocal plot; read-out: dissociation constant (Kd) for binding to tubulin
T1 construct: other: 2 μM tubulin, 45 min at 37° C., double reciprocal plot; rate and extent of tubulin polymerization; other: 25 μM or 100 μM
Description: Fluorescence titration for determining the tubulin binding parameters was performed as described previously (Gupta and Panda, 2002). In brief, 9-nitro-nos (0-100 μM) was incubated with 2 μM tubulin in 25 mM PIPES, pH 6.8, 3 mM MgSO4 and 1 mM EGTA for 45 min at 37° C. The relative intrinsic fluorescence intensity of tubulin was then monitored in a JASCO FP-6500 spectrofluorometer (JASCO, Tokyo, Japan) using a cuvette of 0.3-cm path length, and the excitation wavelength was 295 nm. The fluorescence emission intensity of 9-nitro-nos at this excitation wavelength was negligible. A 0.3-cm path-length cuvette was used to minimize the inner filter effects caused by the absorbance of 9-nitro-nos at higher concentration ranges. In addition, the inner filter effects were corrected using a formula Fcorrected=Fobserved·antilog [(Aex+Aem)/2], where Aex is the absorbance at the excitation wavelength and Aem is the absorbance at the emission wavelength. The dissociation constant (Kd) was determined by the formula: 1/B=Kd/[free ligand]+1, where B is the fractional occupancy and [free ligand] is the concentration of free noscapine or 9-nitro-nos. The fractional occupancy (B) was determined by the formula B=ΔF/ΔFmax, where ΔF is the change in fluorescence intensity when tubulin and its ligand are in equilibrium and ΔFmax is the value of maximum fluorescence change when tubulin is completely bound with its ligand. ΔFmax was calculated by plotting 1/ΔF versus 1/ligand using total ligand concentration as the first estimate of free ligand concentration.
Fluorescence titration for determining the tubulin binding parameters was performed as described previously. In brief, 9-F-nos, 9-Cl-nos, 9-Br-nos or 9-I-nos (0-100 μM) was incubated with 2 μM tubulin in 25 mM PIPES, pH 6.8, 3 mM MgSO4, and 1 mM EGTA for 45 min at 37° C. The relative intrinsic fluorescence intensity of tubulin was then monitored in a JASCO FP-6500 spectrofluorometer (JASCO, Tokyo, Japan) using a cuvette of 0.3-cm path length, and the excitation wavelength was 295 nm. The fluorescence emission intensity of noscapine and its derivatives at this excitation wavelength was negligible. A 0.3-cm path-length cuvette was used to minimize the inner filter effects caused by the absorbance of these agents at higher concentration ranges. In addition, the inner filter effects were corrected using a formula F corrected=F observe·antilog [(Aex+Aem)/2], where Aex is the absorbance at the excitation wavelength and Aem is the absorbance at the emission wavelength. The dissociation constant (Kd) was determined by the formula: 1/B=Kd/[free ligand]+1, where B is the fractional occupancy and [free ligand] is the concentration of 9-F-nos, 9-Cl-nos, 9-Br-nos or 9-I-nos. The fractional occupancy (B) was determined by the formula B=ΔF/ΔFmax, where ΔF is the change in fluorescence intensity when tubulin and its ligand are in equilibrium and ΔFmax is the value of maximum fluorescence change when tubulin is completely bound with its ligand. ΔFmax was calculated by plotting 1/ΔF versus 1/[free ligand].

CEM cells = experiment: Cell cycle analysis (propidium iodide, flow cytometry); assay type: cell-based, human; settings: 25 μM
Description: (§1) The flow cytometric evaluation of the cell cycle status was performed as described previously (Zhou et al., 2003). Briefly, 2×10^6 cells were centrifuged, washed twice with ice-cold PBS, and fixed in 70% ethanol. Tubes containing the cell pellets were stored at 4° C. for at least 24 hours. Cells were then centrifuged at 1000×g for 10 min and the supernatant was discarded. The pellets were washed twice with 5 ml of PBS and then stained with 0.5 ml of propidium iodide (0.1% in 0.6% Triton-X in PBS) and 0.5 ml of RNase A (2 mg/ml) for 45 minutes in dark. Samples were then analyzed on a FACSCalibur flow cytometer (Beckman Coulter Inc., Fullerton, Calif.).

1A9 cells = experiment: as above; assay type: cell-based, human; settings: 1A9, 50 μM
Description: as §1

1A9/PTX22 cells = experiment: as above; assay type: cell-based, human; settings: 1A9/PTX22, 50 μM
Description: as §1

CEM/VLB100 cells = experiment: as above; assay type: cell-based, human; settings: CEM/VLB100, 25 μM
Description: as §1

Molecule `COc1ccc2c(c1OC)C(=O)O[C@@H]2[C@H]1c2c(c([N+](=O)[O-])c3c(c2OC)OCO3)CCN1C` [9-nitro-nos, (S)-6,7-dimethoxy-3-((R)-4-methoxy-6-methyl-9-nitro-5,6,7,8-tetrahydro-[1,3]dioxolo[4,5-g]isoquinolin-5-yl)isobenzofuran-1(3H)-one] has a Kd (tubulin) of 86 ± 6 µM, a G0/G1 (CEM cells; 0 h) of 45.5% and a G2/M (CEM cells; 0 h) of 20.9%. The S (CEM cells; 0 h) was 25.0%, the Sub-G1 (CEM cells; 0 h) was 0.25% and the G0/G1 (CEM cells; 24 h) was 24.8%. It also gave a G2/M (CEM cells; 24 h) of 34.2%, an S (CEM cells; 24 h) of 10.0% and a Sub-G1 (CEM cells; 24 h) of 6.5%. It also gave a G0/G1 (CEM cells; 48 h) of 19.7%, a G2/M (CEM cells; 48 h) of 40.0% and an S (CEM cells; 48 h) of 8.1%. It also gave a Sub-G1 (CEM cells; 48 h) of 23.8%, a G0/G1 (CEM cells; 72 h) of 13.9% and a G2/M (CEM cells; 72 h) of 16.9%. It also gave an S (CEM cells; 72 h) of 8.9%, a Sub-G1 (CEM cells; 72 h) of 44.3% and a G0/G1 (1A9 cells; 0 h) of 50.0%. The G2/M (1A9 cells; 0 h) was 21.2%, the S (1A9 cells; 0 h) was 21.8% and the Sub-G1 (1A9 cells; 0 h) was 0.7%. For the same molecule, the G0/G1 (1A9 cells; 24 h) was 30.6%, the G2/M (1A9 cells; 24 h) was 34.2% and the S (1A9 cells; 24 h) was 14.3%. The Sub-G1 (1A9 cells; 24 h) was 12.0%, the G0/G1 (1A9 cells; 48 h) was 28.6% and the G2/M (1A9 cells; 48 h) was 17.2%. It also gave an S (1A9 cells; 48 h) of 10.6%, a Sub-G1 (1A9 cells; 48 h) of 38.0% and a G0/G1 (1A9 cells; 72 h) of 16.7%. The G2/M (1A9 cells; 72 h) was 9.0%, the S (1A9 cells; 72 h) was 9.6% and the Sub-G1 (1A9 cells; 72 h) was 56.3%. The G0/G1 (1A9/PTX22 cells; 0 h) was 57.0%, the G2/M (1A9/PTX22 cells; 0 h) was 20.4% and the S (1A9/PTX22 cells; 0 h) was 8.8%. It also gave a Sub-G1 (1A9/PTX22 cells; 0 h) of 3.5%, a G0/G1 (1A9/PTX22 cells; 24 h) of 27.3% and a G2/M (1A9/PTX22 cells; 24 h) of 31.4%. It also gave an S (1A9/PTX22 cells; 24 h) of 4.7%, a Sub-G1 (1A9/PTX22 cells; 24 h) of 30.0% and a G0/G1 (1A9/PTX22 cells; 48 h) of 5.9%. The G2/M (1A9/PTX22 cells; 48 h) was 44.3%, the S (1A9/PTX22 cells; 48 h) was 3.4% and the Sub-G1 (1A9/PTX22 cells; 48 h) was 44.6%. For the same molecule, the G0/G1 (1A9/PTX22 cells; 72 h) was 14.1%, the G2/M (1A9/PTX22 cells; 72 h) was 13.7% and the S (1A9/PTX22 cells; 72 h) was 5.7%. For the same molecule, the Sub-G1 (1A9/PTX22 cells; 72 h) was 59.0%, the G0/G1 (CEM/VLB100 cells; 0 h) was 46.9% and the G2/M (CEM/VLB100 cells; 0 h) was 25.7%. The S (CEM/VLB100 cells; 0 h) was 17.6%, the Sub-G1 (CEM/VLB100 cells; 0 h) was 3.6% and the G0/G1 (CEM/VLB100 cells; 24 h) was 25.5%. The G2/M (CEM/VLB100 cells; 24 h) was 36.0%, the S (CEM/VLB100 cells; 24 h) was 17.7% and the Sub-G1 (CEM/VLB100 cells; 24 h) was 14.8%. It also gave a G0/G1 (CEM/VLB100 cells; 48 h) of 23.7%, a G2/M (CEM/VLB100 cells; 48 h) of 30.2% and an S (CEM/VLB100 cells; 48 h) of 9.3%. The Sub-G1 (CEM/VLB100 cells; 48 h) was 30.7%, the G0/G1 (CEM/VLB100 cells; 72 h) was 8.7% and the G2/M (CEM/VLB100 cells; 72 h) was 12.5%. For the same molecule, the S (CEM/VLB100 cells; 72 h) was 4.5% and the Sub-G1 (CEM/VLB100 cells; 72 h) was 56.1%.
